Source: patent US20140315901A1, “Arylpyrrolopyridine derived compounds as LRRK2 inhibitors” (H. Lundbeck A/S, priority 2013, published 2014)
pIC50: −log10 of the molar value.

Experiments:
LRRK2 G2019S = target: T1, LRRK2 G2019S (Homo sapiens, UniProt Q5S007, G2019S); experiment: LanthaScreen TR-FRET LRRK2 G2019S kinase activity assay; assay type: biochemical; conditions: 250 pM LRRK2 G2019S kinase (residues 970 to 2527), 1.3 mM ATP, 0.4 μM fluorescein-LRRKtide, 2 hours at 30° C.; logarithmic average
T1 construct: purchased Invitrogen (Life Technologies Corporation)
Procedure: (§1) LRRK2 kinase activity is measured using a LanthaScreen kinase activity assay available from Invitrogen (Life Technologies Corporation). The assay is a homogeneous time resolved-fluorescence resonance energy transfer (TR-FRET) assay that measures phosphorylation of a fluorescein-labelled peptide substrate (fluorescein-LRRKtide, fluorescein-[…]) (SEQ ID NO 1) as a result of LRRK2 kinase activity. The phosphorylated peptide is recognized by a terbium-labelled phospho-specific anti-LRRKtide antibody and, subsequently, the phosphorylated LRRKtide can be quantified by the extent of TR-FRET between the terbium donor and fluorescein acceptor.
(§2) The LRRK2 kinase is obtained from Invitrogen (Life Technologies Corporation) and comprises residues 970 to 2527 of the full length human wild-type LRRK2 kinase or a similar sequence with the G2019S mutation. As discussed above, this mutation increases the kinase activity relative to the wild-type. The kinase reactions are performed in a 20 μL volume in 384-well plates. The kinase reaction buffer consists of 50 mM Tris pH 8.5, 0.01% BRIJ-35, 10 mM MgCl2, 1 mM EGTA, and 2 mM DTT.
(§3) In the assay, 1 nM LRRK2 WT or 250 pM LRRK2 G2019S kinase is incubated with the test compound (typically at 0 to 30 μM) for 30 minutes before the kinase reaction is initiated by addition of 1.3 mM ATP and 0.4 μM fluorescein-LRRKtide. The reaction mixture (20 μl total volume) is incubated for 2 hours at 30° C. before the reaction is terminated by addition of 10 mM EDTA and 1 nM terbium-labelled anti-phospho-LRRKtide antibody (final volume […]). The mixture is further incubated for 30 minutes at RT. TR-FRET is measured by excitation of the terbium-donor with 340 nm light and subsequent (delay time 100 μs) measurement of terbium and fluorescein emission at 495 nm and 520 nm, respectively, over a time window of 1000 μs. The measurement is repeated 10 times for fluorescein and 10 times for terbium emission with a 2000 μs time window between repeats. TR-FRET measurements are performed on a Biomek Synergy plate. The TR-FRET signal is calculated as the emission-ratio at 520 nm over […].
(§4) Test compound potency (IC50) was estimated by nonlinear regression using the sigmoidal dose-response (variable slope) using Xlfit 4 (IDBS, Guildford, Surrey, UK, model 205). y=(A+((B−A)/(1+((C/x)̂D)))), where y is the normalized TR-TRET ratio measurement for a given concentration of test compound, x is the concentration of test compound, A is the estimated efficacy (% inhibition) at infinite compound dilution, and B is the maximal efficacy (% inhibition). C is the IC50 value and D is the Hill slope coefficient. IC50 estimates were obtained from independent experiment and the logarithmic average was calculated.

LRRK2 WT = target: T2, LRRK2 WT (Homo sapiens, UniProt Q5S007); experiment: LanthaScreen TR-FRET LRRK2 wild-type kinase activity assay; assay type: biochemical; conditions: 1 nM LRRK2 WT kinase (residues 970 to 2527), 1.3 mM ATP, 0.4 μM fluorescein-LRRKtide, 2 hours at 30° C.; logarithmic average
T2 construct: comprises residues 970 to 2527 of the full length human wild-type LRRK2 kinase; purchased Invitrogen (Life Technologies Corporation)
Procedure: as §1, §2, §3, §4

T2 sequence (Q5S007 970-2527): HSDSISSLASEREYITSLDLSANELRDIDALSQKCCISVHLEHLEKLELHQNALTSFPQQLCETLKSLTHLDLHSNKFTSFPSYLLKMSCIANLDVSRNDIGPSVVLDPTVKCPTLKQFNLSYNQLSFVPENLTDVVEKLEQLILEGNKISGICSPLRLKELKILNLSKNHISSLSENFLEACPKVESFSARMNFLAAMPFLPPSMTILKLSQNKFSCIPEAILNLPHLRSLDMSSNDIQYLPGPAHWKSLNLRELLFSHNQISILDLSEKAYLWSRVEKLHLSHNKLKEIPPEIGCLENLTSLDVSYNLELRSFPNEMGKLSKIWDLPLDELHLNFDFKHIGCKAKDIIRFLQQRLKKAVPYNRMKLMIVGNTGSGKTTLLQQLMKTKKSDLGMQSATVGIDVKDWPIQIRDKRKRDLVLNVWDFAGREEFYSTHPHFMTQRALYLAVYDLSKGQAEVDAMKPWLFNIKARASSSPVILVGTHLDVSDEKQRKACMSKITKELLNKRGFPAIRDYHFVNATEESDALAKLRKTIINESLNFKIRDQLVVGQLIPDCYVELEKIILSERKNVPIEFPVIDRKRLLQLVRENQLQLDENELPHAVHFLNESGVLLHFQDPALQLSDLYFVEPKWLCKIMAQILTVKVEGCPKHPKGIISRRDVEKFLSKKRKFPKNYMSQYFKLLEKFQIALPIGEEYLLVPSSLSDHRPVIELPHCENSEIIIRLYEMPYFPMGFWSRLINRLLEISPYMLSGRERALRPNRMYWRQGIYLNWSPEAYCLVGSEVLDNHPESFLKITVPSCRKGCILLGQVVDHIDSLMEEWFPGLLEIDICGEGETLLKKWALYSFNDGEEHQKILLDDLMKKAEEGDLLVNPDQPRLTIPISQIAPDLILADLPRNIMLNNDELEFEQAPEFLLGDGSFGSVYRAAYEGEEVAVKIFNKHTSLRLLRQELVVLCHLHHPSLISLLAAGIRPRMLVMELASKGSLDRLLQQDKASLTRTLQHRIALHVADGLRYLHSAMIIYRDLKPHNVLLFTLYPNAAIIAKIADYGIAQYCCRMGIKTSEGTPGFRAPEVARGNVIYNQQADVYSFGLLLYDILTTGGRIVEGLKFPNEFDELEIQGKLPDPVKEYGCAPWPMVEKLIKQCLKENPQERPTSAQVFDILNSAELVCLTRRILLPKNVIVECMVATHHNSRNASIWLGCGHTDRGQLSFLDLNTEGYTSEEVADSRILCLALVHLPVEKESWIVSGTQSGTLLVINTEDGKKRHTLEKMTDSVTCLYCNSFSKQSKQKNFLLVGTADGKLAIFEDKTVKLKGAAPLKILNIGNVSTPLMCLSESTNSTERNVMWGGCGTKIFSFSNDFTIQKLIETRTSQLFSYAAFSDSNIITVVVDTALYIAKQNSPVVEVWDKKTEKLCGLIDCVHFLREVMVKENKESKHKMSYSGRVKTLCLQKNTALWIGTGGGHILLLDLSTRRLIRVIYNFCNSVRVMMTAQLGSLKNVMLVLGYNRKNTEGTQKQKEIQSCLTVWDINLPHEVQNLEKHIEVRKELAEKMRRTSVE
T1 sequence (Q5S007 970-2527 G2019S): as the sequence (Q5S007 970-2527) above, with G1050S counted along it

Row | SMILES | pIC50 (LRRK2 G2019S) | pIC50 (LRRK2 WT)
1 | Cc1cccc(-c2cc(Nc3nn(C)cc3C(F)(F)F)nc3[nH]cc(C#N)c23)n1 [Example 21, 6-{[1-Methyl-4-(trifluoromethyl)-1H-pyrazol-3-yl]amino}-4-(6-methylpyridin-2-yl)-1H-pyrrolo[2,3-b]pyridine-3-carbonitrile] | 6.24 | 6.41
2 | Cc1cccc(-c2cc(N)nc3[nH]cc(C#N)c23)c1 [Example 12, 6-Amino-4-(3-methylphenyl)-1H-pyrrolo[2,3-b]pyridine-3-carbonitrile] | 7.77 | 7.82
3 | N#Cc1c[nH]c2nc(N)cc(-c3ccccc3)c12 [Example 11, 6-Amino-4-phenyl-1H-pyrrolo[2,3-b]pyridine-3-carbonitrile] | 6.62 | 6.67
4 | COc1cc(-c2ccnc3[nH]cc(C#N)c23)ccc1CN1CCOCC1 [Example 10, 4-[3-Methoxy-4-(morpholin-4-ylmethyl)phenyl]-1H-pyrrolo[2,3-b]pyridine-3-carbonitrile] | 6.81 | 6.04
5 | Cc1cc(-c2cc(Nc3ccn(C)n3)nc3[nH]cc(C#N)c23)ccc1CN1CCOCC1 [Example 15, 4-[3-Methyl-4-(morpholin-4-ylmethyl)phenyl]-6-[(1-methylpyrazol-3-yl)amino]-1H-pyrrolo[2,3-b]pyridine-3-carbonitrile] | 9.00 | 8.40
6 | N#Cc1c[nH]c2nccc(-c3ccn(CN4CCOCC4)c3)c12 [Example 6, 4-[1-(Morpholin-4-ylmethyl)pyrrol-3-yl]-1H-pyrrolo[2,3-b]pyridine-3-carbonitrile] | 6.19 | 5.41
7 | Cc1cncc(-c2cc(Nc3nn(C)cc3C(F)(F)F)nc3[nH]cc(C#N)c23)c1 [Example 18, 6-{[1-Methyl-4-(trifluoromethyl)-1H-pyrazol-3-yl]amino}-4-(5-methylpyridin-3-yl)-1H-pyrrolo[2,3-b]pyridine-3-carbonitrile] | 6.29 | 6.45
8 | Cc1cc(-c2ccnc3[nH]cc(C#N)c23)ccc1CN1CCOCC1 [Example 7, 4-[3-Methyl-4-(morpholin-4-ylmethyl)phenyl]-1H-pyrrolo[2,3-b]pyridine-3-carbonitrile] | 7.11 | 6.21
9 | Cc1cc(-c2ccnc3[nH]cc(C#N)c23)ccc1CN(C)C [Example 8, 4-{4-[(Dimethylamino)methyl]-3-methylphenyl}-1H-pyrrolo[2,3-b]pyridine-3-carbonitrile] | 6.54 | 6.26
10 | N#Cc1c[nH]c2nccc(-c3ccc(CN4CCOCC4)cc3)c12 [Example 5, 4-[4-(Morpholin-4-ylmethyl)phenyl]-1H-pyrrolo[2,3-b]pyridine-3-carbonitrile] | 5.88 | 5.26
11 | Cc1cccc(-c2cc(Nc3nn(C)cc3C)nc3[nH]cc(C#N)c23)n1 [Example 20, 6-[(1,4-Dimethyl-1H-pyrazol-3-yl)amino]-4-(6-methylpyridin-2-yl)-1H-pyrrolo[2,3-b]pyridine-3-carbonitrile] | 7.30 | 7.44
12 | Cc1cccc(-c2ccnc3[nH]cc(C#N)c23)c1 [Example 2, 4-(3-Methylphenyl)-1H-pyrrolo[2,3-b]pyridine-3-carbonitrile] | 6.71 | 6.77
13 | Cc1cncc(-c2cc(Nc3ccn(C)n3)nc3[nH]cc(C#N)c23)c1 [Example 22, 6-[(1-Methyl-1H-pyrazol-3-yl)amino]-4-(5-methylpyridin-3-yl)-1H-pyrrolo[2,3-b]pyridine-3-carbonitrile] | 7.43 | 7.57
14 | Cn1cc(Nc2cc(-c3ccccc3)c3c(C#N)c[nH]c3n2)cn1 [Example 16, 6-[(1-Methylpyrazol-4-yl)amino]-4-phenyl-1H-pyrrolo[2,3-b]pyridine-3-carbonitrile] | 6.79 | 7.01
15 | COc1cccc(-c2ccnc3[nH]cc(C#N)c23)c1 [Example 1, 4-(3-Methoxyphenyl)-1H-pyrrolo[2,3-b]pyridine-3-carbonitrile] | 6.70 | 6.61
16 | N#Cc1c[nH]c2nc(Nc3ccccn3)cc(-c3ccccc3)c12 [Example 17, 4-Phenyl-6-(pyridin-2-ylamino)-1H-pyrrolo[2,3-b]pyridine-3-carbonitrile] | 6.28 | 6.47
17 | N#Cc1c[nH]c2nccc(-c3ccsc3)c12 [Example 4, 4-(Thiophen-3-yl)-1H-pyrrolo[2,3-b]pyridine-3-carbonitrile] | 6.07 | 5.89
18 | Cc1cccc(-c2cc(Nc3ccn(C)n3)nc3[nH]cc(C#N)c23)c1 [Example 14, 4-(3-Methylphenyl)-6-[(1-methylpyrazol-3-yl)amino]-1H-pyrrolo[2,3-b]pyridine-3-carbonitrile] | 8.70 | 9.00
19 | Cc1ccnc(-c2cc(Nc3nn(C)cc3Cl)nc3[nH]cc(C#N)c23)c1 [Example 19, 6-[(4-Chloro-1-methyl-1H-pyrazol-3-yl)amino]-4-(4-methylpyridin-2-yl)-1H-pyrrolo[2,3-b]pyridine-3-carbonitrile] | 6.67 | 6.84
20 | Cc1cc(-c2cc(Nc3nn(C)cc3C)nc3[nH]cc(C#N)c23)ccn1 [Example 23, 6-[(1,4-Dimethyl-1H-pyrazol-3-yl)amino]-4-(2-methylpyridin-4-yl)-1H-pyrrolo[2,3-b]pyridine-3-carbonitrile] | 6.97 | 6.67
21 | CCc1cc(-c2ccnc3[nH]cc(C#N)c23)ccc1CN1CCOCC1 [Example 9, 4-[3-Ethyl-4-(morpholin-4-ylmethyl)phenyl]-1H-pyrrolo[2,3-b]pyridine-3-carbonitrile] | 7.59 | 6.83
22 | Cn1ccc(Nc2cc(-c3ccccc3)c3c(C#N)c[nH]c3n2)n1 [Example 13, 6-[(1-Methylpyrazol-3-yl)amino]-4-phenyl-1H-pyrrolo[2,3-b]pyridine-3-carbonitrile] | 7.24 | 7.32
23 | CCc1cccc(-c2ccnc3[nH]cc(C#N)c23)c1 [Example 3, 4-(3-Ethylphenyl)-1H-pyrrolo[2,3-b]pyridine-3-carbonitrile] | 6.60 | 6.58
